We go through 48 compounds from patent US9579299B2, “CNS pharmaceutical compositions and methods of use” (TARGIA PHARMACEUTICALS, priority 2008, dated 2017).

Read-outs that look alike come from different tables or passages of the source.

In general, Tmax refers to the time at which the peak concentration occurs.

For data set [1] the following is noted: cited from earlier work.
The conditions of data set [2]: cited from earlier work. This is another data set of the same source.
For data set [3] the following is noted: antiparkinsonian drugs; cited from earlier work.
In a further data set the test system is treated patients. To be noted: cited from earlier work; for Psychiatric side-effects: anti-epileptics.
The conditions of data set [4]: parent drug; cited from earlier work.
The conditions of data set [5]: cited from earlier work. The source holds these as a separate data set.
For data set [6] the following is noted: cited from earlier work. This is another data set of the same source.
The test system of another data set is subject. Kind of data set: Example 4: Flunitrazepam with pseudoephedrine and Mucinex, subject report.
For the next data set, the system named is healthy volunteer. Kind of data set: Example 2: volunteer with lower back pain, Soma with neuromodulators. The class given is in vivo, human. As to the method: A healthy volunteer was prescribed 250 mg two times a day Soma by their family doctor for reduction of lower back pain. […] The volunteer agreed to take Soma during the day together with the neuromodulation treatment. They took Soma in the morning and afternoon together with Pseudoephedrine followed 15 minutes later by Guaifenisin.

The next data set concerns patient. Kind of data set: Example 1: patient with tooth pain, Soma with neuromodulators. The data set is classed as in vivo, human. The settings on record: Soma with 60 mg Pseudoephedine, 600 mg Guaifenesin 10 min later. As for the experimental part: A patient had experienced tooth pain. The patient was given the following treatment: at 11:00 a.m.-co-administration of Soma (Carisoprodol) with 60 mg of Pseudoephedine. At 11:10 a.m.-600 mg of Guaifenesin. […] At no time during the treatment did the patient feel somnolent or have any desire to sleep.

Setting [7] is: stated in words (injection / IV).
The mark [8] stands for this setting: oral ingestion 75-100 mg/kg in humans.
[9] abbreviates: Soma with Pseudoephedrine, Guaifenisin 15 minutes later, two-day regimen.

Consider `C=CC(N)CCC(=O)O` (stereo not drawn) [Vigabatrin (GVG), Gamma vinyl GABA], for which the Tmax in data set [1] (CNS active agent) was 0.4 to 1 h.
For `CCN(CC)C(=O)N[C@H]1C=C2c3cccc4[nH]cc(c34)C[C@H]2N(C)C1` [Lisuride], in data set [2] (in vivo), the Half-life is listed as 2 h and the Tmax was 1.1 to 1.3 h.
On to `CCCN1C[C@H](CSC)C[C@@H]2c3cccc4[nH]cc(c34)C[C@H]21` [pergolide], for which the Psychiatric side-effects result in [3] is reported as “Sedation, psychomotor agitation, anxiety,”.
For the compound `CCCN(CCC)CCc1cccc2c1CC(=O)N2` [Ropinirole], in [2] (in vivo), the Half-life is reported as 6 h and the Tmax was 1 to 2 h. Also, the Psychiatric side-effects entry in data set [3] was “Sedation, psychomotor agitation, anxiety,”.
Regarding `CCOC(=O)C1(c2ccccc2)CCN(C)CC1` [Meperidine(Pethidine), Meperidine], in data set [2] (in vivo), the Half-life was 3 to 5 h. In addition, the Tmax result is “oral, up to 1.5 h” in data set [2] (oral) and “IV, several min” in data set [2] (setting [7]).
Regarding `CN1CCN(C2=Nc3cc(Cl)ccc3Nc3ccccc32)CC1` [Clozapine], the Tmax in data set [1] (CNS active agent) was 2.5 h.
`Cc1ccccc1C(OCCN(C)C)c1ccccc1` (stereo not drawn) [Orphenadrine]: in data set [2] (in vivo), the Half-life is 13 to 20 h and the Tmax is listed as 2 h.
For the compound `COc1ccc(OC)c(C(O)CNC(=O)CN)c1` (stereo not drawn) [Mitodrin], the Tmax in data set [1] (selected neuromodulators) is 0.25 to 0.5 h.
`Cc1ccsc1C(=CCCN1CCC[C@@H](C(=O)O)C1)c1sccc1C` [Tiagabine]: in the data set on treated patients, the Psychiatric side-effects result is listed as “Psychosis (0.8% of treated patients), depressive symptoms” and the “Psychosis, % of treated patients” value was 0.8%.
As to `CN1CCN=C(c2ccccc2)c2cc(Cl)ccc21` [Medazepam], the “Elimination Half-Life” value in data set [4] was 36 to 200 h.
On to `O=C1CN=C(c2ccccc2)c2cc([N+](=O)[O-])ccc2N1` [Nitrazepam], for which, in data set [4], the “Elimination Half-Life” value is 15 to 38 h.
As for `O=C1CN=C(c2ccccc2Cl)c2cc([N+](=O)[O-])ccc2N1` [Clonazepam], in [1] (CNS active agent), the Tmax is reported as 4 h and the bioactivity is given as 90%. For the same compound, the “Elimination Half-Life” value in [4] is 18 to 50 h.
For the compound `OC(CCN1CCCCC1)(c1ccccc1)C1CC2C=CC1C2` (stereo not drawn) [Biperiden], in [2] (in vivo), the Half-life was 18 to 24 h and the Tmax was 1.5 h.
Turning to `CC[C@@H](C(N)=O)N1CCCC1=O` [Levetiracetam], in the data set on treated patients, the Psychiatric side-effects result was “Irritability, sedation and psychosis”.
As for `CN[C@@H](C)[C@@H](O)c1ccccc1` [Pseudoephedrine], the Tmax in data set [1] (selected neuromodulators) was 0.5 to 1 h.
Consider `COc1ccc2c(c1)N(C[C@H](C)CN(C)C)c1ccccc1S2` [Methotrimeprazine], for which, in data set [2] (in vivo), the Half-life is 20 h and the Tmax was 1 to 4 h.
In the case of `CN1CCN(/C=C2\N=C3CN=C(c4ccccc4Cl)c4cc([N+](=O)[O-])ccc4N3C2=O)CC1` [Loprazolam], in data set [4], the “Elimination Half-Life” value was 6 to 12 h.
`Cc1cc2c(s1)Nc1ccccc1N=C2N1CCN(C)CC1` [Olanzapine]: in [1] (CNS active agent), the Tmax was 5 to 8 h and the bioactivity is 40%.
As for `CN1C(=O)C(O)N=C(c2ccccc2Cl)c2cc(Cl)ccc21` (stereo not drawn) [Lormetazepam], the “Elimination Half-Life” value in [4] is 10 to 12 h.
As for `CCCC(CCC)C(=O)[O-].[Na+]` [Sodium valproate], the Psychiatric side-effects entry in the data set with treated patients is reported as “Sedation, hallucinations, depressive symptoms, delirium”.
Regarding `CCC1(c2ccccc2)C(=O)NC(=O)NC1=O` [Phenobarbital, 5-ethyl-5-phenyl barbituric acid], the Tmax in data set [1] (CNS active agent) was 2 h.
With `CC1=CC(=O)N2CC(=O)N(C)c3ccc(Cl)cc3C2(c2ccccc2)O1` (stereo not drawn) [Ketazolam], the “Elimination Half-Life” value in data set [4] was 2 h.
With `N#CCCN1C(=O)C(O)N=C(c2ccccc2F)c2cc(Cl)ccc21` (stereo not drawn) [Cinolazepam], in data set [4], the “Elimination Half-Life” value was 9 h.
As to `Clc1ccc2c(c1)C(c1ccccc1)=NCc1nncn1-2` [Estazolam], the “Elimination Half-Life” value in data set [4] was 10 to 24 h.
As to `CNC[C@H](O)c1cccc(O)c1` [Phenylephrine], the “duration of anti-hypotensive effect” value in data set [5] (after a single intravascular injection) is given as “approximately 20 minutes”. In addition, the time to peak (Tmax) in data set [1] (selected neuromodulators) was 0.167 to 0.25 h.
As to `O=C(O)CCCO` [GHB, g-Hydroxybutyric acid], the time to peak (Tmax) is 0.5 to 2 h in [1] (CNS active agent), “approximately 30 minutes” in data set [6] (25 mg/kg) and “around 45 minutes” in data set [6] (50 mg/kg). For the same compound, the peak blood levels in data set [6] (setting [8]) is 90 to 100 µg/mL. Further, the “time of peak blood levels after ingestion” value in data set [6] (setting [8]) was 1 to 2 h. For the same compound, in data set [6] (orally), the onset of action is at most 15 min.
With `CN1C(=O)CN=C(c2ccccc2F)c2cc([N+](=O)[O-])ccc21` [Flunitrazepam], the subject-reported effects entry in the data set on subject (Flunitrazepam 0.5 mg, 15 minutes later pseudoephedrine 60 mg and Mucinex 600 mg) was “a little “loopy””; with subject (Flunitrazepam 1.0 mg, at the same time pseudoephedrine 60 mg and Mucinex 600 mg), “started to feel tranquilized”.
Take `CCCN[C@H]1CCc2nc(N)sc2C1` [Pramipexole]: the Tmax in data set [2] (in vivo) was 1 h. Also, the Psychiatric side-effects entry in data set [3] was “Sedation, psychomotor agitation, anxiety,”.
Turning to `CN1C(=O)CC(=O)N(c2ccccc2)c2cc(Cl)ccc21` [Clobazam], the “Elimination Half-Life” value in data set [4] is 12 to 60 h.
Turning to `CN1CCc2cccc3c2[C@H]1Cc1ccc(O)c(O)c1-3` [Apomorphine], the Tmax result in data set [2] (setting [7]) was “(fast, but injection)”. In addition, the Psychiatric side-effects result in data set [3] is recorded as “Sedation, psychomotor agitation, anxiety,”.
For the compound `CCC1(c2ccccc2)C(=O)NCNC1=O` [Primidone], the Psychiatric side-effects entry in the data set with treated patients is “Sedation, mood lability, psychotic symptoms, delirium”.
Regarding `CC(C)C[C@H]1C(=O)N2CCC[C@H]2[C@]2(O)O[C@](NC(=O)[C@@H]3C=C4c5cccc6[nH]c(Br)c(c56)C[C@H]4N(C)C3)(C(C)C)C(=O)N12` [Bromocriptine], in [2] (in vivo), the Half-life is on record as 7 h and the Tmax was 1 to 2 h. Also, the Psychiatric side-effects entry in [3] is “Sedation, psychomotor agitation, anxiety,”.
As to `NCC(CC(=O)O)c1ccc(Cl)cc1` (stereo not drawn) [Baclofen], in [2] (in vivo), the Half-life is 1.5 to 4 h and the Tmax was 0.5 to 1 h.
As to `CN1[C@@H]2CC[C@H]1C[C@@H](OC(c1ccccc1)c1ccccc1)C2` [Benzatropine], in [2] (in vivo), the Half-life is recorded as 36 h and the Tmax is 1 to 2 h. Besides, the Psychiatric side-effects result in data set [3] is “Sedation, anxiety, psychosis, delirium,”.
Consider `CN1C(=O)CN=C(C2=CCCCC2)c2cc(Cl)ccc21` [Tetrazepam], for which the “Elimination Half-Life” value in data set [4] was 3 to 26 h.
Regarding `CCCC(C)(COC(N)=O)COC(=O)NC(C)C` (stereo not drawn) [Carisoprodol], in data set [2] (in vivo), the Half-life is on record as 2.5 h and the Tmax is 1.5 to 2 h. The sedative side-effect result with healthy volunteer (Soma 250 mg two times a day alone) is on record as “suffered from the sedative side-effect of Soma”. Also, in the data set on healthy volunteer (setting [9]), the back pain result is given as “back pain was effectively reduced” and the sedation reported entry is given as “did not feel sedated”. Further, the “sedation or other side-effects reported by patient” value in the data set with patient is “without any sedation or other side-effects”. Further, the “pain reported by patient” value with patient (tooth pain) was “less pain than prior to the procedure”.
Regarding `Cc1cc(C)cc(OCC2CNC(=O)O2)c1` (stereo not drawn) [Metaxalone], in [2] (in vivo), the Half-life is 5 to 12 h and the Tmax was 3 h. Also, the duration entry in data set [5] (in vivo) was “four to six hours”.
Take `O=C1CN=C(c2ccccn2)c2cc(Br)ccc2N1` [Bromazepam]: the “Elimination Half-Life” value in data set [4] was 10 to 20 h.
Turning to `CN1C(=O)CN=C(c2ccccc2)c2cc(Cl)ccc21` [Diazepam], in data set [1] (CNS active agent), the bioactivity was 97%.
As to `COc1ccccc1OCC(O)COC(N)=O` (stereo not drawn) [Methocarbamol], in data set [2] (in vivo), the Half-life was 1 to 2 h and the Tmax was 1 to 2 h. In addition, in data set [2] (in vivo, listed as Robaxin), the Half-life was 1.14 to 1.24 h and the Tmax is 0.5 to 1 h.
Regarding `Nc1nnc(-c2cccc(Cl)c2Cl)c(N)n1` [Lamotrigine], in the data set with treated patients, the Psychiatric side-effects entry is “Sedation, depression, agitation, psychosis” and the “Psychosis, % of treated patients” value is reported as “(0.3% of treated patients)”.
As for `NCC1(CC(=O)O)CCCCC1` [Gabapentin, 1-(aminomethyl)-cyclohexylacetic acid], the Psychiatric side-effects result in the data set on treated patients is given as “Sedation, agitation, fatigue”.
With `Fc1ccccc1C1=NCC(=S)N(CC(F)(F)F)c2ccc(Cl)cc21` [Quazepam], the “Elimination Half-Life” value in data set [4] was 25 to 100 h.
Turning to `COCCc1ccc(OCC(O)CNC(C)C)cc1` (stereo not drawn) [Metoprolol], in data set [2] (in vivo), the Half-life was 3 to 7 h and the Tmax result is reported as “(fast) up to 1 h”.
On to `CNC1=Nc2ccc(Cl)cc2C(c2ccccc2)=[N+]([O-])C1` [Chlordiazepoxide], for which the “Elimination Half-Life” value in data set [4] is 5 to 30 h.
Regarding `Fc1ccc(C(c2ccc(F)cc2)N2CCN(C/C=C/c3ccccc3)CC2)cc1` [Flunarizine], in data set [2] (in vivo), the Half-life was 456 h and the Tmax is 1 h.
Regarding `C=CCN1C[C@H](C(=O)N(CCCN(C)C)C(=O)NCC)C[C@@H]2c3cccc4[nH]cc(c34)C[C@H]21` [Cabergoline], in data set [2] (in vivo), the Half-life is 63 to 69 h and the Tmax is 0.5 to 4 h. Also, the Psychiatric side-effects entry in data set [3] is “Sedation, psychomotor agitation, anxiety,”.
Take `CCC(=O)C(CC(C)N(C)C)(c1ccccc1)c1ccccc1` (stereo not drawn) [Methadone]: in [2] (in vivo), the Tmax was 1 to 7.5 h.
